Test results reported in paper PMC11859928, “Design, Synthesis, and Antiproliferative Activity of Novel Indole/1,2,4-Triazole Hybrids as Tubulin Polymerization Inhibitors” (Pharmaceuticals, 2025).

Tests used:
[1] = system: SGC-7901 cancer cell line; parameters: method as in PMID 37182330; settings: cited from earlier work
tubulin = target: T1, tubulin (Sus scrofa, UniProt P02550+P02554); assay: Tubulin polymerization inhibitory assay; type: biochemical
T1 construct: purchased Cytoskeleton Inc., Denver, CO, USA
T1 sequence (P02554 whole entry): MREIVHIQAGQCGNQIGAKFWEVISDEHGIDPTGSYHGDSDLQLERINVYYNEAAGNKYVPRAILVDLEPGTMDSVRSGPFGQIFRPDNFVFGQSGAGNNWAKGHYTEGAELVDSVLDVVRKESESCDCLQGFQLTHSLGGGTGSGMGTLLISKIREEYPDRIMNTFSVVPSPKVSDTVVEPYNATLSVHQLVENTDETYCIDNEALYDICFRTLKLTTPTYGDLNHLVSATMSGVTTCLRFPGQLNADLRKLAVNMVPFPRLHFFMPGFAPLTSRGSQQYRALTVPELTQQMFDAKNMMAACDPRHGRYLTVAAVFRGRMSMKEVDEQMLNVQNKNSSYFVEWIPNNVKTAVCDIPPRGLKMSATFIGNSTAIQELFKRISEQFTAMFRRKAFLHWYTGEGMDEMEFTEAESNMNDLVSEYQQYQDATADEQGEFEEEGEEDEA
T1 sequence (P02550 whole entry): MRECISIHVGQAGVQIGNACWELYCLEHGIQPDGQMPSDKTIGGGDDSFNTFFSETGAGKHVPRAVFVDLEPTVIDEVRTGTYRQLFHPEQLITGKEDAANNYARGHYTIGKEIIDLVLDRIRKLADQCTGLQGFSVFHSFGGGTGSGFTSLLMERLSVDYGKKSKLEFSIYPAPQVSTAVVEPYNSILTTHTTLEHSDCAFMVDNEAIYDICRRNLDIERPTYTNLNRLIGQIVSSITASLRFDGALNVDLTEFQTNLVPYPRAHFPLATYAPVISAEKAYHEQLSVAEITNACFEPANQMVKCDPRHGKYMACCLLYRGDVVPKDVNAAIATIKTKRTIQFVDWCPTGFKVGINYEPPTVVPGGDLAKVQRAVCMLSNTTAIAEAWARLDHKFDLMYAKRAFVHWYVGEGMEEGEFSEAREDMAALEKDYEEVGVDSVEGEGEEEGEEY
Description: The substances’ effects on tubulin polymerization were examined using the Tubulin Polymerization Assay Kit (Cytoskeleton Inc., Denver, CO, USA) according to the supplier’s instructions, with details described in Appendix A..
The activity of compounds on tubulin polymerization was investigated using the Tubulin Polymerization Assay Kit (Cytoskeleton Inc., Denver, CO, USA), which works via fluorescent reporter enhancement. […] Docetaxel and vincristine (Apoteket AB, Stockholm, Sweden) served as positive stabilizing and destabilizing controls. Both were used at a 3 µM concentration in PBS.

[2] = system: multi-drug resistant K562R cell line; parameters: method as in PMID 33038796; settings: cited from earlier work

SMILES: COc1cc(-c2nc3scc(-c4cc(Cl)cc(Cl)c4)n3n2)cc(OC)c1OC [IV]
- IC50 [1]: 210 nM

SMILES: COc1ccc(/C=C\c2cc(OC)c(OC)c(OC)c2)cc1O [CA-4, combretastatin A-4, reference compound]
- %inhibition (tubulin; conc 0.01 (unit not given; IC50 from this curve in µg/ml)): 8.7%
- %inhibition (tubulin; conc 0.1 (unit not given; IC50 from this curve in µg/ml)): 21.2%
- %inhibition (tubulin; conc 1 (unit not given; IC50 from this curve in µg/ml)): 34.9%
- %inhibition (tubulin; conc 10 (unit not given; IC50 from this curve in µg/ml)): 59%
- %inhibition (tubulin; conc 100 (unit not given; IC50 from this curve in µg/ml)): 84.2%

SMILES: Cc1cc(-c2cccc(-c3c[nH]c4ccccc34)n2)c2ccccc2n1 [Compound III]
- antiproliferative potency, times more effective than CA-4 [2]: 12 times
- antiproliferative potency, times more effective than isoCA-4 [2]: 1.5 times
